Source: publication PMC9138102, “The Role of ZIP9 and Androgen Receptor in the Establishment of Tight Junctions between Adult Rat Sertoli Cells” (Biology, 2022)

What was measured:
Sertoli cell line 93RS2 = settings: 93RS2 cells; ZIP9-mediated; cited from earlier work
Text: The testosterone receptor responsible for the stimulation of the expression of TJ proteins and the formation of the BTB, however, remains to be defined. The classical androgen receptor (AR) has for decades been undisputed as the mediator of all testosterone effects, including the stimulation of TJ formation at the BTB; however, recent investigations have challenged this assumption. ZIP9, a rather recently identified membrane-bound androgen receptor and zinc transporter from the family of ZRT/IRT-like proteins (ZRT = zinc-regulated transporter; IRT = iron-regulated transporter) ...

JAM-3-specific mRNA = assay: JAM-3 mRNA expression in PASC1 cells, qRT-PCR; format: cell-based, rat; settings: 10 nM testosterone or 10 µM IAPG, 24 h, n = 3 × 2
Experimental: Primers were designed with http://www.ncbi.nlm.nih.gov/tools/primer-blast (Accessed on 28 February 2022) and were all intron-spanning. Total RNA was isolated from PASC1 with the RNeasy Mini-Kit (Qiagen, Hilden, Germany) and subjected to DNase I treatment as described by the manufacturer. The Reverse Transcription-System first strand cDNA synthesis kit (Invitrogen, Darmstadt, Germany) was used for cDNA synthesis, as recommended. Quantitative real-time PCR (qRT-PCR) amplification was performed in duplicate with iQ TM SYBR Green Super-mix (Bio-Rad; Munich; Germany) on the iCycler iQ System (Bio-Rad). After an initial heating at 94 °C for 5 min, 40 amplification cycles were performed consisting of an initial denaturation of the DNA double strands at 94 °C for 14 s, an annealing phase of the primers at 59 °C for 30 s, and extension of the primers for 15 s at 72 °C. A finalizing extension at 72 °C was carried out for 10 min. Gene expression was measured after reaching the ct value and calculated using the Delta–Delta Ct method. Detection of GAPDH-specific mRNA/cDNA served as normalization of the quantification. Oligonucleotides used in the qRT-PCR, their annealing position, and the expected size of the amplificates are listed in Supplementary Table S2.
(§1) For silencing ZIP9 or AR expression, PASC1 cells were treated with commercially available siRNA directed against the expression of ZIP9 or the AR by following the manufacturer’s protocol (Silencer ® Select, siRNA Invitrogen, Darmstadt, Germany). The following oligonucleotides were used: 5′ […]tt3′ and 5′ […]ta 3′ (ZIP9-siRNA for ZIP9 silencing) and 5′[…]tt3′ plus 5′ […]ag 3′ (AR-siRNA for AR silencing). Negative control siRNA (nc-siRNA) was provided in the siRNA kit from the same manufacturer. After incubation of PASC1 for 48 h with ZIP9-siRNA, AR-siRNA, or nc-siRNA, preparation of samples for qRT-PCR, TER measurement, or immunofluorescence experiments were carried out as described above.

AR = AR nuclear translocation in PASC1 cells (immunofluorescence); format: cell-based, rat; settings: 2 h
Experimental: PASC1 cells were plated at a density of 3.0 × 10^4 on 24-well plates (1 mL/well) and incubated 48 h at 37 °C and 5% CO2 until a confluence of roughly 80% was reached. Cells were rinsed with DPBS and fixed with 100% ice-cold methanol (Roth, Karlsruhe, Germany) on ice for 10 min directly or after stimulation with vehicle, 10 nM testosterone, or 1 µM P1 for 24 h. Cells were then washed with DPBS three times for 5 min, and then incubated in blocking solution (PBS with 3% BSA and 0.3% Triton X-100, both from Sigma-Aldrich) for 1 h at room temperature. The blocking solution was replaced by fresh blocking solution containing the primary antibodies for detection of either AR, p-Erk1/2, p-CREB/p-ATF-1, claudin-1 (Cldn-1), or zonula occludens-1 (ZO-1) (Supplementary Table S1) and incubated overnight at 4 °C. […] After washing 3 times with DPBS, images were obtained using an inverse Olympus IX81 microscope equipped with a fluorescence system. A total of 30 cells from 3 independent experiments (30 × 3) localized closest to the diagonals of the square optical field were selected and the manually surrounded green fluorescence was quantified by ImageJ (available at http://rsbweb.nih.gov/ij/, last accessed 28 February 2022) following the protocol of the software provider.

[1] = exogenous testosterone; cited from earlier work
ZO-1 = ZO-1 expression in PASC1 cells, immunofluorescence; format: cell-based, rat; settings: 10 nM testosterone or 10 µM IAPG, 24 h, n = 3 × 25
Experimental: PASC1 cells were plated at a density of 3.0 × 10^4 on 24-well plates (1 mL/well) and incubated 48 h at 37 °C and 5% CO2 until a confluence of roughly 80% was reached. […] Cells were then washed with DPBS three times for 5 min, and then incubated in blocking solution (PBS with 3% BSA and 0.3% Triton X-100, both from Sigma-Aldrich) for 1 h at room temperature. The blocking solution was replaced by fresh blocking solution containing the primary antibodies for detection of either AR, p-Erk1/2, p-CREB/p-ATF-1, claudin-1 (Cldn-1), or zonula occludens-1 (ZO-1) (Supplementary Table S1) and incubated overnight at 4 °C. Cells were washed 3 times with DPBS for 3 min each at RT on an orbital shaker, freshly made blocking solution with the appropriate Alexafluor 488-conjugated donkey anti-rabbit secondary antibody was added for 1 h at room temperature on an orbital shaker. After washing 3 times with DPBS, images were obtained using an inverse Olympus IX81 microscope equipped with a fluorescence system. […] The data obtained were analyzed by GraphPad Prism5 (GraphPad Software, Inc., La Jolla, CA, USA).
as §1

| Compound | Expression of claudin-1 and claudin-5 (Sertoli cell line 93RS2) | TJ formation (Sertoli cell line 93RS2) | JAM-3 mRNA expression (JAM-3-specific mRNA; AR-siRNA) | JAM-3 mRNA expression (JAM-3-specific mRNA; ZIP9-siRNA) | JAM-3 mRNA expression (JAM-3-specific mRNA; nc-siRNA) | AR localization / translocation into the nucleus (AR; testosterone 10 nM) | Effect on hypothalamic–pituitary–gonadal axis hormones [1] | Effect on male fertility [1] | Germ cell production [1] | Severe side effects [1] | Stimulated ZO-1 fluorescence, nc-siRNA versus AR-siRNA (ZO-1) | ZO-1 expression (fluorescence signal) (ZO-1; ZIP9-siRNA) | ZO-1 expression (fluorescence signal) (ZO-1; nc-siRNA) | AR localization / translocation into the nucleus (AR; IAPG 10 µM) |
| --- | --- | --- | --- | --- | --- | --- | --- | --- | --- | --- | --- | --- | --- | --- |
| C[C@]12CC[C@H]3[C@@H](CCC4=CC(=O)CC[C@@]43C)[C@@H]1CC[C@@H]2O [testosterone] | increased expression of claudin-1 and claudin-5 | enhanced TJ formation | upregulated | remained at basal levels | upregulated | all green fluorescence was found within the nuclei | prevents GnRH release from the hypothalamus and FSH and LH from the pituitary, leading to the impairment of testosterone production in Leydig cells | unfavorably affects male fertility | germ cell production under these conditions is halted | polycythemia, cardiac hypertrophy, and myocardial infarction | not significantly different | The ZO-1 fluorescence was unchanged by the ligands | the ZO-1-corresponding signal was significantly intensified |  |
| IAPG |  |  | upregulated | remained at basal levels | upregulated |  |  |  |  |  | not significantly different | The ZO-1 fluorescence was unchanged by the ligands | the ZO-1-corresponding signal was significantly intensified | A translocation of the AR from the cytosol into the nucleus did not occur |
